Data as given in patent US3991199A, “Pyridoindoles” (Endo Laboratories, Inc., priority 1974, dated 1976).
Structures can show the parent of a compound that is named as a salt. Where two headings read alike, the source gives them in different places.

Experiments:
[1] = system: phenyl-p-benzoquinone writhing; test: Phenylquinone Writhing (PQW), analgesic; type: in vivo; settings: po, read-out: PQW mouse ED50
locomotor activity = test: Decreased Locomotor Activity (LMA), sedative; type: in vivo, mouse; settings: for minimal effective dose: po, read-out: LMA mouse MED
[2] = system: conditioned avoidance response; test: Rat Conditioned Avoidance Response (CAR), major tranquilizer; type: in vivo; settings: for ED50: po, read-out: CAR rat ED50
[3] = system: conflict (approach-avoidance); test: Rat Conflict (Approach-Avoidance) Test (Conf), minor tranquilizer; type: in vivo; settings: for minor tranquilizing (anxiolytic) activity: in words
[4] = system: pressor response to epinephrine and/or nor-epinephrine; test: Adrenergic Blockage (AB); type: in vivo; settings: Canis lupus familiaris; intravenous, dog; read-out: AB dog MED
[5] = system: conflict (approach-avoidance); settings: in words, background statement; cited from earlier work
[6] = U.S. Pat. No. 3,657,254; cited from earlier work
blood pressure = test: Hypotensive (Hypo): blood pressure in conscious rats; type: in vivo; settings: Rattus norvegicus, oral dose, read-out: Hypo rat MED

SMILES: Cl.c1ccc(N2c3ccccc3[C@@H]3CN(CC45CC6CC(CC(C6)C4)C5)CC[C@H]32)cc1 (racemic) [compound 4 of Table II, (±)-trans-2-(1-adamantylmethyl)-2,3,4,4a,5,9b-hexahydro-5-phenyl-1H-pyrido[4,3-b]indole, hydrochloride]
- ED50 ([1]; mouse): 19 mg/kg
- minimal effective dose (locomotor activity; mouse): 30 mg/kg
- major tranquilizing (antipsychotic) activity ([2]; in words): exhibit major tranquilizing (antipsychotic) activity
- ED50 ([2]; rat): 50 mg/kg
- minor tranquilizing (anxiolytic) activity [3]: exhibit minor tranquilizing (anxiolytic) activity at doses which are not sedating
- minimal effective dose ([3]; po, rat, read-out: Conf rat MED): 10 mg/kg
- minimal effective dose ([3]; po, rat, comparison table, read-out: Rat Conf.): 10 mg/kg
- minimal effective dose [4]: > 1 mg/kg

SMILES: COc1ccc2c3c1O[C@H]1[C@@H](O)C=C[C@H]4[C@@H](C2)N(C)CC[C@@]341 [codeine phosphate, reference compound]
- ED50 ([1]; Mus musculus): 19 mg/kg

SMILES: CC(=O)Oc1ccccc1C(=O)O [aspirin, reference compound]
- ED50 ([1]; Mus musculus): 94 mg/kg

SMILES: CC12C=CC(CN3CC[C@@H]4[C@@H](C3)c3ccccc3N4c3ccccc3)(CC1)CC2 (relative stereo)
- ED50 ([1]; mouse): 14 mg/kg
- minimal effective dose (locomotor activity; mouse): 30 mg/kg

SMILES: CN(C)CCCN1c2ccccc2Sc2ccc(Cl)cc21 [chlorpromazine, reference compound]
- minimal effective dose (locomotor activity; Mus musculus): 2 to 10 mg/kg
- ED50 ([2]; Rattus norvegicus): 6 mg/kg
- Conf rat MED ([3]; rat, in vivo, po): I

SMILES: CN1C(=O)CN=C(c2ccccc2)c2cc(Cl)ccc21 [diazepam, reference compound]
- minimal effective dose (locomotor activity; Mus musculus): 3 to 10 mg/kg
- minimal effective dose ([3]; Rattus norvegicus, po, read-out: Conf rat MED, with ataxia): 3 to 10 mg/kg
- minimal effective dose ([3]; Rattus norvegicus, po, read-out: Rat Conf.): 3 to 10 mg/kg
- effect in conflict test [5]: apparent decreased fear in the test animals

SMILES: c1ccc(CCN2CC[C@@H]3[C@@H](C2)c2ccccc2N3c2ccccc2)cc1 (relative stereo)
- ED50 ([1]; mouse): 2 mg/kg
- minimal effective dose (locomotor activity; mouse): 10 mg/kg

SMILES: c1ccc(N2c3ccccc3[C@@H]3CN(C[C@H]4[C@@H]5CCCC[C@@H]54)CC[C@H]32)cc1 (relative stereo) [compound 9 of Table II, (±)-trans-2,3,4,4a,5,9b-hexahydro-2-(exo-7-norcarylmethyl)-5-phenyl-1H-pyrido[4,3-b]indole, hydrochloride]
- ED50 ([1]; mouse): 1 mg/kg
- reducing locomotor activity (locomotor activity; in words): potency in reducing locomotor activity
- minimal effective dose (locomotor activity; mouse): 0.1 mg/kg

SMILES: CC(Cl)=CCN1CC[C@@H]2[C@@H](C1)c1ccccc1N2c1ccccc1 (relative stereo)
- ED50 ([1]; mouse): 2 mg/kg
- minimal effective dose (locomotor activity; mouse): 1 mg/kg

SMILES: CCCC(C)(COC(N)=O)COC(N)=O [meprobamate]
- effect in conflict test [5]: apparent decreased fear in the test animals

SMILES: Cl.c1ccc(N2c3ccccc3[C@@H]3CN(CC4C5CC6CC(C5)CC4C6)CC[C@H]32)cc1 (mixture of isomers) [compound 14 of Table II, (±)-trans-2-(2-adamantylmethyl)-2,3,4,4a,5,9b-hexahydro-5-phenyl-1H-pyrido[4,3-b]indole, hydrochloride]
- ED50 ([1]; mouse): 27 mg/kg
- minimal effective dose (locomotor activity; mouse): 2 mg/kg
- major tranquilizing (antipsychotic) activity ([2]; in words): exhibit major tranquilizing (antipsychotic) activity
- minor tranquilizing (anxiolytic) activity [3]: exhibit minor tranquilizing (anxiolytic) activity at doses which are not sedating
- Conf rat, active dose ([3]; po, rat, ** active at this dose, MED not yet determined): 10 mg/kg

SMILES: CC12CCC(CN3CC[C@@H]4[C@@H](C3)c3ccccc3N4c3ccccc3)(CC1)CC2 (relative stereo)
- ED50 ([1]; mouse): 80 mg/kg
- minimal effective dose (locomotor activity; mouse): 30 mg/kg

SMILES: Cc1ccc2c(c1)[C@@H]1CN(C)CC[C@@H]1N2 (relative stereo) [2,8-dimethyl-2,3,4,4a,5,9b-hexahydro-1H-pyrido[4,3-b]]indole]
- mechanism of action [6]: adrenergic blockade
- psychotropic effects [6]: neuroleptic, antidepressive, and energizing effects

SMILES: c1ccc(N2c3ccccc3[C@@H]3CN(CC4CCCCC4)CC[C@H]32)cc1 (relative stereo)
- ED50 ([1]; mouse): 4 mg/kg
- minimal effective dose (locomotor activity; mouse): 3 mg/kg
- ED50 ([2]; rat): 20 mg/kg
- Conf rat MED ([3]; po, rat): I
- minimal effective dose (blood pressure): 10 mg/kg
- minimal effective dose [4]: 0.03 mg/kg

SMILES: C1=CCC(CN2CC[C@@H]3[C@@H](C2)c2ccccc2N3c2ccccc2)CC1 (relative stereo)
- ED50 ([1]; mouse): 2 mg/kg
- minimal effective dose (locomotor activity; mouse): 3 mg/kg

SMILES: c1ccc(N2c3ccccc3[C@@H]3CN(CC4CCC4)CC[C@H]32)cc1 [compound of Example 2, (+)-trans-2-(cyclobutylmethyl)-2,3,4,4a,5,9b-hexahydro-5-phenyl-1H-pyrido[4,3-b]indole]
- minimal effective dose (locomotor activity; Mus musculus): 3 mg/kg
- ED50 ([2]; Rattus norvegicus): 4 mg/kg
- major tranquilizing (antipsychotic) activity ([2]; rat, in vivo): major tranquilizer (antipsychotic) activity
- Conf rat MED ([3]; rat, in vivo, po): I
- minimal effective dose (blood pressure): 3 mg/kg

SMILES: c1ccc(N2c3ccccc3[C@@H]3CN(CC4CCCC4)CC[C@H]32)cc1 (racemic) [compound 2 of Table II, (±)-trans-2-(cyclopentylmethyl)-2,3,4,4a,5,9b-hexahydro-5-phenyl-1H-pyrido[4,3-b]indole]
- ED50 ([1]; mouse): 1 mg/kg
- minimal effective dose (locomotor activity; mouse): 10 mg/kg
- major tranquilizing (antipsychotic) activity ([2]; in words): major tranquilizer (antipsychotic) activity
- ED50 ([2]; rat): 5 mg/kg
- Conf rat MED ([3]; po, rat): I
- minimal effective dose (blood pressure): 10 mg/kg
- minimal effective dose [4]: 0.03 mg/kg
